Values joined by “and” are separate entries in the source; they are usually repeats but may differ in a detail not shown here. Equal entries are not always repeated. Where two headings read alike, the source gives them in different places.

The target in assay [1] is T1, rat PDE2A (Rattus norvegicus, UniProt Q01062).
T1 construct: Frozen sagittal 12 µm brain sections obtained from female SPRD and male Wistar-Han rats; from tissue; host or cells: rat brain cryosections (female SPRD and male Wistar-Han rats)
T1 sequence (Q01062 1-928): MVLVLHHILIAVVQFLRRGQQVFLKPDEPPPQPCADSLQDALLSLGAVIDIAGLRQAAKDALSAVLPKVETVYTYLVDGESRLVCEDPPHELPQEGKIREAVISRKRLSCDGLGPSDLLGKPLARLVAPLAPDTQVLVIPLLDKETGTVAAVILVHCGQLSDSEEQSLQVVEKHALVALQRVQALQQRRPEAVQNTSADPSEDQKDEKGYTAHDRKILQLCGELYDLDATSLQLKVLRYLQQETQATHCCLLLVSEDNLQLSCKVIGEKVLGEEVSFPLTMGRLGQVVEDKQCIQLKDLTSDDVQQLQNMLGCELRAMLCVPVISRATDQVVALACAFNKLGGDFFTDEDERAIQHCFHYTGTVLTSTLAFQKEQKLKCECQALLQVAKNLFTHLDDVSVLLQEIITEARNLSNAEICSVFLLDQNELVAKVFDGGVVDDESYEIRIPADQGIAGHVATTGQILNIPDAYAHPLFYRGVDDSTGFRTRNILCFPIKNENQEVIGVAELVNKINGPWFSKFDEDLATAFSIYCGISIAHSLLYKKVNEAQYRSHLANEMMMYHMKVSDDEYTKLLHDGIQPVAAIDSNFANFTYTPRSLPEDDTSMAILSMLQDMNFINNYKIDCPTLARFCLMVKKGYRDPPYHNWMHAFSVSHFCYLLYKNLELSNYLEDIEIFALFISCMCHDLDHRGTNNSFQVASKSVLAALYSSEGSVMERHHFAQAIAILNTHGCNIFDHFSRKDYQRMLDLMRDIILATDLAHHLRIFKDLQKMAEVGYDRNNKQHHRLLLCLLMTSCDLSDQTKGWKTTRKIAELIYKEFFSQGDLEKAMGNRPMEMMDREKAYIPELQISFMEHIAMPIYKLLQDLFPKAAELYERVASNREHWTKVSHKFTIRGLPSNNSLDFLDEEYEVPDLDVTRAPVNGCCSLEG
Briefly: In vitro autoradiography with rat brain cryosections. The format is binding. The note with it: co-incubation with 1 µM inhibitor. The method, then:
Frozen sagittal 12 µm brain sections obtained from female SPRD and male Wistar-Han rats (10–12 weeks old) were thawed, dried in a stream of cold air, and pre-incubated for 15 min with incubation buffer (50 mM TRIS-HCl, pH 7.4; supplemented with 1 mM MgCl2, 1 mM CaCl2, 2 mM KCl, and 2 U/mL Adenosine deaminase) at ambient temperature. Afterwards, the buffer was decanted and the cryosections dried again in a stream of cold air before covering with the radioligand in incubation buffer (~0.1 MBq [^18F]11/mL; Am at the time of the incubation ~10 GBq/µmol) for incubation at ambient temperature for 90 min.
The incubation was terminated by pouring off the incubation solution and washing the slides twice with ice-cold buffer (50 mM TRIS-HCl, pH 7.4/4 °C) for 2 min and rinsing by dipping in ice-cold demineralised water. Immediately afterwards, the sections were dried in a stream of cold air and exposed along with appropriate radioactive standards (1 µL of serial dilutions of the radioligand in incubation buffer, pipetted on a microscopic glass slide and air dried) to an ^18F-sensitive image plate for 120 min. Finally, the imaging plate was scanned at the highest possible resolution (pixel size 12.6 µm × 12.6 µm) in a phosphor imager (HD-CR 35; Duerr NDT GmbH, Bietigheim Bissingen, Germany) and the digital image analysed with an image analysis program (Aida Image Analyzer v. 4.26; Elysia-raytest GmbH, Straubenhardt, Germany).
For the determination of the protein concentration, four dried 12 µm cryosections were scraped from the microscopic glass slides, transferred in an Eppendorf tube and solubilised with 200 µL of demineralised water. The protein concentration of this solution was determined by a commercial assay (Pierce™ BCA Protein Assay Kit, Thermo Fisher Scientific, Schwerte, Germany). The area of the cryosections was determined during the analysis of the digitized autoradiographic images, and the volume was calculated by multiplying the area with the thickness of the slices. Finally, the protein concentration of the tissue was calculated (37 mg protein/g wet weight).

Assay [2] has as its system PDE2A. To be noted: cited from earlier work.
In assay [3] the test system is PDE10A. The assay is described as follows: Inhibitory potency against PDE10A. The format is biochemical. The note with it: PDE2A vs. PDE10A.
For assay [4], the system named is PDE10A. More on the design: method as in earlier work. To be noted: read-out: IC50, PDE10A (PDE10A1); cited from earlier work.
Assay [5] has as its system PDE2A. More on the design: method as in earlier work. To be noted: cited from earlier work.
The test system of assay [6] is human PDE2A. More on the design: method as in PMID 15555642. The note with it: cited from earlier work.
The subject of assay [7] is bovine PDE2A. More on the design: method as in PMID 15555642. To be noted: cited from earlier work.

A word on the IC50: it is the point on the concentration scale where inhibition reaches its midpoint. Turning to `Cc1nc(-c2cnn(C)c2-c2ccc(C(F)(F)F)cn2)c2c(N3CCC3)ncnn12` [PF-05180999, reference compound], in assay [1], the “blocking of [18F]11 binding in rat brain sections” value is “completely blocked”. The IC50 in assay [2] was 1.6 nM.
`CCCC(O)c1ccc(F)c(-c2nnc3c(C)nc4ccc(C5CC5)nc4n23)c1` (centres unmarked) [Compound 11, 1-[3-(2-Cyclopropyl-6-methylpyrido[3,2-e][1,2,4]triazolo[4,3-a]pyrazin-9-yl)-4-fluorophenyl]butan-1-ol]: in assay [3], the “selectivity vs. PDE10A” value is recorded as ~1000 fold. For the same compound, the IC50 in assay [4] is ~2000 nM and 1910 nM; in assay [5] it was 1.99 nM.
As to `COc1ccc(Cc2nn3c([C@@H](CCCc4ccccc4)[C@@H](C)O)nc(C)c3c(=O)[nH]2)cc1OC` [BAY60-7550], the IC50 in assay [6] is 4.7 nM; in assay [7], 2 nM. Moreover, the “blocking of [18F]11 binding in rat brain sections” value in assay [1] is reported as “completely blocked”.

The values are drawn from article PMC9609767, “Radiosynthesis and Preclinical Evaluation of an ^18F-Labeled Triazolopyridopyrazine-Based Inhibitor for Neuroimaging of the Phosphodiesterase 2A (PDE2A)” (Pharmaceuticals, 2022).
